According to patent publication USRE38257E1, “Piperdine derivatives and hypotensives containing the same” (Ajinomoto Co., Inc., priority 1988, dated 2003):

Tested on: male spontaneously hypertensive rats
Experiment: Decrease in systolic blood pressure in spontaneously hypertensive rats after intravenous bolus injection, indirect (tail-cuff) method
Type: in vivo, rat
Details: for Decrease in systolic blood pressure (mmHg) time after administration (hour) 0.5: 0.5 hour after administration; for Decrease in systolic blood pressure (mmHg) time after administration (hour) 4: 4 hours after administration
Procedure: As test animals, four male spontaneously hypertensive rats (weight 400 to 440 g) that were sufficiently adapted for feeding and in which hypertension was confirmed were used.
Physiological saline aqueous solution containing 2.5% Nicolle and 2.5% ethanol of sample was intravenously administered by bolus injection at a dose of 1 ml per 1 kg of body weight. Systolic blood pressure after administration was measured by the indirect (tail-cuff) method.

Structure (SMILES) | Decrease in systolic blood pressure (mmHg) time after administration (hour) 0.5 (dose 10 mg/kg i.v. bolus) [mmHg] | Decrease in systolic blood pressure (mmHg) time after administration (hour) 4 (dose 10 mg/kg i.v. bolus) [mmHg] | other results
C1=Cc2ccccc2C(=C2CCN(CCCCCCc3ccccc3)CC2)c2ccccc21.Cl [Example 17, 6-(4-(5H-Dibenzo[a,d]cyclohepten-5-ylidene)-1-piperidinyl)-1-phenylhexane hydrochloride] | −84 | −16 | 
C1=Cc2ccccc2C(=C2CCN(CCCOc3ccccc3)CC2)c2ccccc21.Cl [Example 20, 3-(4-(5H-Dibenzo[a,d]cyclohepten-5-ylidene)-1-piperidinyl)-1-phenoxypropane hydrochloride] | −37 | 2 | 
C1=Cc2ccccc2C(=C2CCN(CCCSc3ccccc3)CC2)c2ccccc21.Cl [Example 23, 3-(4-(5H-Dibenzo[a,d]cyclohepten-5-ylidene)-1-piperidinyl)-1-phenylthiopropane hydrochloride] | −34 | 10 | 
Cl.O=[N+]([O-])c1ccccc1S(=O)(=O)NCCN1CCC(=C2c3ccccc3C=Cc3ccccc32)CC1 [Example 25, 4-(5H-Dibenzo[a,d]cyclohepten-5-ylidene)-1-(2-(2-nitrobenzenesulfonyl)aminoethyl)piperidine hydrochloride] | −8 | −7 | 
Cl.O=c1[nH]c2ccccc2c(=O)n1CCN1CCC(=C2c3ccccc3C=Cc3ccccc32)CC1 [Example 28] | −52 | 4 | 
COc1ccc(C(C#N)(CCCN2CCC(=C3c4ccccc4C=Cc4ccccc43)CC2)C(C)C)cc1OC.Cl (stereo not shown) [Example 31, 5-(4-(5H-Dibenzo[a,d]cyclohepten-5-ylidene)-1-piperidinyl)-2-(3,4-dimethoxyphenyl)-2-isopropylvaleronitrile hydrochloride] | −61 | −11 | 
Cl.O=C(C=Cc1ccccc1)Nc1ccccc1SCCCN1CCC(=C2c3ccccc3C=Cc3ccccc32)CC1 [Example 37, 1-(3-(2-Cinnamoylaminophenylthio)-1-propyl)-4-(5H-dibenzo[a,d]-cyclohepten-5-ylidene)piperidine hydrochloride] | −78 | −36 | 
C(=Cc1ccccc1)CN1CCC(=C2c3ccccc3C=Cc3ccccc32)CC1.Cl [Example 38, 1-Cinnamyl-4-(5H-dibenzo[a, d]cyclohepten-5-ylidene)piperidine hydrochloride] | −140 | −76 | 
CC(C)C(C#N)(CCCN1CCC(=C2c3ccccc3C=Cc3ccccc32)CC1)c1ccc(Cl)c(Cl)c1.Cl (stereo not shown) [Example 42, 5-(4-(5H-Dibenzo[a,d]cyclohepten-5-ylidene)-1-piperidinyl)-2-(3,4-dichlorophenyl)-2-isopropylvaleronitrile hydrochloride] | −66 | −14 | 
Cl.N#CC(CCCCl)(CCCN1CCC(=C2c3ccccc3C=Cc3ccccc32)CC1)c1ccccc1 (stereo not shown) [Example 52, 2-(3-Chloropropyl)-5-(4-(5H-dibenzo[a,d]cyclohepten-5-ylidene)-1-piperidinyl)-2-phenylvaleronitrile hydrochloride] | −23 | −9 | 
Cl.N#CC(CCCN1CCC(=C2c3ccccc3C=Cc3ccccc32)CC1)c1cccc(C(F)(F)F)c1 (stereo not shown) [Example 59, 5-(4-(5H-Dibenzo[a,d]cyclohepten-5-ylidene)-1-piperidinyl)-2-(3-trifluoromethylphenyl)valeronitrile hydrochloride] | −87 | −21 | 
CC(C)C(C#N)(CCCN1CCC(=C2c3ccccc3C=Cc3ccccc32)CC1)c1cccc(C(F)(F)F)c1.Cl (stereo not shown) [Example 60, 5-(4-(5H-Dibenzo[a,d]cyclohepten-5-ylidene)-1-piperidinyl)-2-isopropyl-2-(3-trifluoromethylphenyl)valeronitrile hydrochloride] | −121 | −48 | 
CC(CC(=O)c1ccccc1)N1CCC(=C2c3ccccc3C=Cc3ccccc32)CC1.Cl (stereo not shown) [Example 100, 3-(4-(5H-Dibenzo[a,d]cyclohepten-5-ylidene)-1-piperidinyl)butyrophenone hydrochloride] | −35 | −5 | 
Cl.OC(CCCN1CCC(=C2c3ccccc3C=Cc3ccccc32)CC1)c1ccccc1 (stereo not shown) [Example 101, 4-(4-(5H-Dibenzo[a,d]cyclohepten-5-ylidene)-1-piperidinyl)-1-hydroxy-1-phenylbutane hydrochloride] | −89 | −14 | 
Cl.OC(CCN1CCC(=C2c3ccccc3C=Cc3ccccc32)CC1)c1ccc(F)cc1 (stereo not shown) [Example 107, 3-(4-(5H-Dibenzo[a,d]cyclohepten-5-ylidene)-1-piperidinyl)-1-hydroxy-1-(4-fluorophenyl)propane hydrochloride] | −88 | −11 | 
Cl.OC(CCCN1CCC(=C2c3ccccc3C=Cc3ccccc32)CC1)c1ccc(F)cc1 (stereo not shown) [Example 108, 4-(4-(5H-Dibenzo[a,d]cyclohepten-5-ylidene)-1-piperidinyl)-1-hydroxy-1-(4-fluorophenyl)butane hydrochloride] | −126 | −50 | 
Cl.Fc1ccccc1CN1CCC(=C2c3ccccc3C=Cc3ccccc32)CC1 [Example 111, 4-(5H-Dibenzo[a,d]cyclohepten-5-ylidene)-1-(2-fluorobenzyl)piperidine hydrochloride] | −98 | −13 | 
Cl.Fc1cccc(CN2CCC(=C3c4ccccc4C=Cc4ccccc43)CC2)c1 [Example 112, 4-(5H-Dibenzo[a,d]cyclohepten-5-ylidene)-1-(3-fluorobenzyl)piperidine hydrochloride] | −16 | 0 | 
Cl.Fc1ccc(CN2CCC(=C3c4ccccc4C=Cc4ccccc43)CC2)cc1 [Example 113, 4-(5H-Dibenzo[a,d]cyclohepten-5-ylidene)-1-(4-fluorobenzyl)piperidine hydrochloride] |  |  | Decrease in systolic blood pressure (mmHg) time after administration (hour) 0.5 (dose 1 mg/kg i.v. bolus): −151 mmHg; Decrease in systolic blood pressure (mmHg) time after administration (hour) 4 (dose 1 mg/kg i.v. bolus): −81 mmHg
Cl.FC(F)(F)c1cccc(CN2CCC(=C3c4ccccc4C=Cc4ccccc43)CC2)c1 [Example 115, 4-(5H-Dibenzo[a,d]cyclohepten-5-ylidene)-1-(3-trifluoromethylbenzyl)piperidine hydrochloride] | −53 | −19 | 
COc1ccccc1CN1CCC(=C2c3ccccc3C=Cc3ccccc32)CC1.Cl [Example 117, 4-(5H-Dibenzo[a,d]cyclohepten-5-ylidene)-1-(2-methoxybenzyl)piperidine hydrochloride] | −143 | −25 | 
COc1cccc(CN2CCC(=C3c4ccccc4C=Cc4ccccc43)CC2)c1.Cl [Example 118, 4-(5H-Dibenzo[a,d]cyclohepten-5-ylidene)-1-(3-methoxybenzyl)piperidine hydrochloride] | −129 | −24 | 
COc1ccc(CN2CCC(=C3c4ccccc4C=Cc4ccccc43)CC2)cc1.Cl [Example 119, 4-(5H-Dibenzo[a,d]cyclohepten-5-ylidene)-1-(4-methoxybenzyl)piperidine hydrochloride] | −34 | −5 | 
Cl.Fc1c(F)c(F)c(CN2CCC(=C3c4ccccc4C=Cc4ccccc43)CC2)c(F)c1F [Example 120, 4-(5H-Dibenzo[a,d]cyclohepten-5-ylidene)-1-pentafluorobenzylpiperidine hydrochloride] |  |  | Decrease in systolic blood pressure (mmHg) time after administration (hour) 0.5 (dose 3 mg/kg i.v. bolus): −17 mmHg; Decrease in systolic blood pressure (mmHg) time after administration (hour) 4 (dose 3 mg/kg i.v. bolus): −12 mmHg
Cl.Fc1ccc(C2(CCCN3CCC(=C4c5ccccc5C=Cc5ccccc54)CC3)OCCO2)cc1 [Example 124] | −90 | −20 | 
Cl.O=C(CCCN1CCC(=C2c3ccccc3C=Cc3ccccc32)CC1)c1ccc(F)cc1 [Example 125, 4-(4-(5H-Dibenzo[a,d]cyclohepten-5-ylidene)-1-piperidinyl)-4′-fluorobutyrophenone hydrochloride] | −93 | −14 | 
